From the supplement of paper PMC10883282

Columns and labels:
Assay in all cases: standardised AUC of viability dose-response curve (72 h) (fraction (0-1)); higher = less growth inhibition (more resistant)
A204 = test system: A204
How it was run: (§1)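 After 72 h with 2.5 µl of compound (compound-plate series 10 mM to 0.0002 mM), triplicate wells of sarcoma cell lines in 384-well plates were read with ATPLite, with viability scaled 1 (full) to 0 (none) and fitted with a four-parameter log-logistic model. The values give the standardised area under the dose-response curve in log-dose space from a modified drexplorer computeAUC. A value of 1 means no response and 0 means full response.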

G401 = test system: G401
How it was run: as §1

HS729 = test system: HS729
How it was run: as §1

HT1080 = test system: HT1080
How it was run: as §1

KHOS-240S = test system: KHOS-240S
How it was run: as §1

KHOS-NP = test system: KHOS-NP
How it was run: as §1

MES-SA = test system: MES-SA
How it was run: as §1

RD-ES = test system: RD-ES
How it was run: as §1

RD = test system: RD
How it was run: as §1

SK-ES-1 = test system: SK-ES-1
How it was run: as §1

SK-LMS-1 = test system: SK-LMS-1
How it was run: as §1

SW1353 = test system: SW1353
How it was run: as §1

SW684 = test system: SW684
How it was run: as §1

SW872 = test system: SW872
How it was run: as §1

SW982 = test system: SW982
How it was run: as §1

SYO-1 = test system: SYO-1
How it was run: as §1

VA-ES-BJ = test system: VA-ES-BJ
How it was run: as §1

Row | Structure (SMILES) | standardised AUC (A204) | standardised AUC (G401) | standardised AUC (HS729) | standardised AUC (HT1080) | standardised AUC (KHOS-240S) | standardised AUC (KHOS-NP) | standardised AUC (MES-SA) | standardised AUC (RD-ES) | standardised AUC (RD) | standardised AUC (SK-ES-1) | standardised AUC (SK-LMS-1) | standardised AUC (SW1353) | standardised AUC (SW684) | standardised AUC (SW872) | standardised AUC (SW982) | standardised AUC (SYO-1) | standardised AUC (VA-ES-BJ)
1 | NC(=O)c1cccc2cn(-c3ccc([C@@H]4CCCNC4)cc3)nc12 [NIRAPARIB] | 0.949 | 0.971 | 0.977 | 0.999 | 0.983 | 1 | 0.961 | 0.874 | 0.956 | 0.8 | 0.979 | 0.966 | 0.989 | 1 | 0.94 | 0.842 | 0.966
2 | Cc1cn(-c2cc(NC(=O)c3ccc(C)c(Nc4nccc(-c5cccnc5)n4)c3)cc(C(F)(F)F)c2)cn1 [NILOTINIB] | 0.799 | 0.954 | 0.917 | 0.972 | 0.947 | 0.989 | 0.957 | 0.949 | 0.926 | 0.909 | 1 | 0.996 | 1 | 0.971 | 0.976 | 0.843 | 0.981
3 | C[C@@H]1COC(Nc2ccc3ncnc(Nc4ccc(OCc5nccs5)c(Cl)c4)c3c2)=N1 [VARLITINIB] | 0.918 | 0.953 | 0.955 | 0.974 | 0.975 | 0.992 | 0.954 | 0.989 | 1 | 0.97 | 0.987 | 0.928 | 0.994 | 0.962 | 0.975 | 0.97 | 0.994
4 | CCN(CCCOc1ccc2c(Nc3cc(CC(=O)Nc4cccc(F)c4)[nH]n3)ncnc2c1)CCOP(=O)(O)O [BARASERTIB] | 0.816 | 0.869 | 0.928 | 0.925 | 0.856 | 1 | 0.685 | 0.5 | 0.826 | 0.4 | 0.938 | 0.915 | 0.972 | 0.94 | 0.745 | 0.581 | 0.8
5 | Cc1cccc(-c2[nH]c(CNc3ccccc3F)nc2-c2ccc3ncnn3c2)n1 [VACTOSERTIB] | 0.982 | 0.993 | 0.917 | 1 | 0.957 | 0.989 | 0.991 | 0.99 | 0.996 | 0.997 | 0.995 | 0.992 | 0.959 | 1 | 0.995 | 0.911 | 1
6 | Cc1cn(-c2cc(NC(=O)c3ccc(C)c(Nc4nccc(-c5cnccn5)n4)c3)cc(C(F)(F)F)c2)cn1 [RADOTINIB] | 0.894 | 0.977 | 0.976 | 0.997 | 0.988 | 0.992 | 1 | 0.996 | 0.992 | 0.999 | 1 | 1 | 1 | 0.967 | 0.995 | 0.929 | 1
7 | COc1cc2nccc(Oc3ccc(NC(=O)C4(C(=O)Nc5ccc(F)cc5)CC4)cc3)c2cc1OC [CABOZANTINIB] | 0.656 | 0.856 | 0.809 | 0.965 | 0.923 | 0.96 | 0.871 | 0.919 | 0.95 | 0.89 | 0.661 | 0.855 | 0.827 | 0.908 | 0.916 | 0.714 | 0.913
8 | C#Cc1cccc(Nc2ncnc3cc(OCCOC)c(OCCOC)cc23)c1 [ERLOTINIB] | 0.943 | 0.982 | 0.956 | 0.992 | 0.994 | 0.994 | 0.941 | 0.983 | 0.984 | 0.893 | 0.968 | 0.926 | 0.992 | 0.946 | 0.927 | 0.978 | 0.955
9 | Cc1ccc(C(=O)OCc2ccc([C@@H](CN)C(=O)Nc3ccc4cnccc4c3)cc2)c(C)c1 [NETARSUDIL] | 0.85 | 0.949 | 0.966 | 0.952 | 0.828 | 0.951 | 0.857 | 0.914 | 0.923 | 0.921 | 0.886 | 0.855 | 0.926 | 0.893 | 0.91 | 0.884 | 0.985
10 | FC(F)(F)c1ccc(CNc2ccc(Cc3c[nH]c4ncc(Cl)cc34)cn2)cn1 [PEXIDARTINIB] | 0.837 | 0.946 | 0.903 | 0.953 | 0.975 | 0.955 | 0.978 | 0.991 | 1 | 0.97 | 0.979 | 0.935 | 0.974 | 0.939 | 1 | 0.861 | 0.976
11 | CN1CCN(CCOc2cc(OC3CCOCC3)c3c(Nc4c(Cl)ccc5c4OCO5)ncnc3c2)CC1 [SARACATINIB] | 0.906 | 0.918 | 0.849 | 0.981 | 0.884 | 0.951 | 0.943 | 0.955 | 0.871 | 0.931 | 0.908 | 0.865 | 0.977 | 0.858 | 0.821 | 0.851 | 0.938
12 | COc1cc(OC)cc(N(CCNC(C)C)c2ccc3ncc(-c4cnn(C)c4)nc3c2)c1 [ERDAFITINIB] | 0.555 | 0.604 | 0.685 | 0.964 | 0.773 | 0.971 | 0.796 | 0.891 | 0.924 | 0.818 | 0.91 | 0.868 | 0.924 | 0.856 | 0.816 | 0.581 | 0.912
